Reference: PMC11597817, “Modulation of Multispecific Transporters by Uncaria tomentosa Extract and Its Major Phytoconstituents” (Pharmaceutics, 2024)

Tested on: HEK293-MDR1
Experiment: Antiproliferative MTT assay
Assay type: cell-based, human
Conditions: 30 μM pure natural product, 72 h
Procedure: For the determination of the antiproliferative properties of the prepared extract and selected alkaloids (isopteropodine, mitraphylline, and uncarine D), an MTT assay was applied on our HEK293 cell panel (see Table S4). […] All were maintained in a minimal essential medium completed with 10% fetal bovine serum, 1% non-essential amino acids, and 1% penicillin–streptomycin at 37 °C in a humidified atmosphere containing 5% CO2. All cell lines were purchased from the European Collection of Cell Cultures (Salisbury, UK), except for SiHa and C33A, which were from the American Tissue Culture Collection, LGC Standards GmbH (Wesel, Germany). Cell culture media and supplements were obtained from Lonza Group Ltd. (Basel, Switzerland). Cells were seeded into 96-well plates (C33A 10,000/well, all others 5000/well); after overnight incubation, the test substances were added and incubated for another 72 h under cell-culturing conditions. Uncaria tomentosa extract and the alkaloids were tested in the 1–90 μg/mL and 1–30 μM ranges, respectively. Finally, 20 μL of 5 mg/mL MTT solution was added to each well and incubated for 4 h; the medium was discarded, and the precipitated formazan crystals were dissolved in DMSO for 60 min with shaking. The absorbance was determined using a microplate reader (SPECTROstar Nano, BMG Labtech GmbH). […]

SMILES | Cell growth inhibition at the highest concentration (% ± SEM)
COC(=O)C1=CO[C@@H](C)[C@@H]2CN3CC[C@@]4(C(=O)Nc5ccccc54)[C@@H]3C[C@H]12 [isopteropodine] | < 20%
COC(=O)C1=CO[C@@H](C)[C@H]2CN3CC[C@]4(C(=O)Nc5ccccc54)[C@@H]3C[C@H]12 [mitraphylline] | < 20%
